# Measurements as given in patent US20150174202A1, “Methods and Compositions for Modulating Beta Cell Proliferation” (The Board of Trustees of the Leland Stanford Junior …, priority 2011, published 2015).
# “Also recorded” adds a separate entry of the source.
# Tests used:
# Ezh2 = test: Ezh2/Ezh1 expression in cultured mouse islets (real-time RT-PCR, western blot); type: cell-based
# Protocol: Mouse pancreatic islets were purified as described in Chen et al. (2009) Genes Dev. 23, 975-985 and used immediately for assays described in the text. To study Ezh2 induction in cultured islets exposed to mitogens, freshly isolated islets from 2-3-week old, and 7-12-month old C57BL/6 mice were recovered and equilibrated overnight at 37° C., 5% CO2 in RPMI-1640 medium supplemented with 0.5% fetal bovine serum (FBS), 0.2% bovine albumin (BSA) and 2% penicillin/streptomycin. Afterwards, islets were distributed into microplates or dishes, and treated with recombinant human PDGF-AA, prolactin or insulin (Sigma), with or without addition of pharmacological inhibitors, including Sunitinib (Selleck), […]0126 (Sigma), LY294002 (Sigma) or U-73122 (Sigma) at the indicated concentrations. Two days later, islets were harvested for RNA or protein extraction for real-time RTPCR or western blot analyses. To detect phosphorylation of Pdgfr-α by western blot, islets were exposed to PDGF-AA (with or without indicated pharmacological inhibitors) for 90 min before islet harvesting and protein extraction. To detect in vitro islet β-cell proliferation stimulated by PDGF-AA, a final concentration of 50 μM BrdU was introduced into each culture dish 24 h before harvest, followed by standard histological processing. Immunostaining of BrdU and insulin was performed on processed islets, and β-cell proliferation rate was determined by quantifying percentage of insulin+ cells with BrdU+. Culture experiments of human islets were performed using a similar procedure described later. Total RNA from freshly isolated or cultured islets after indicated treatments were purified using the Absolutely RNA miniprep purification kit (Stratagene) according to the manufacturer's instructions. RNA concentration was measured with a RiboGreen RNA quantification assay (Invitrogen). One-step quantitative RT-PCR was performed and analysed using an ABI Prism 7300 detection system (Applied Biosystems) with TaqMan one-step RTPCR Master Mix Reagents and appropriate amounts (10-100 ng) of islet total RNA as the template. We calculated the ratio of mRNA for the gene of interest to the amount of internal control mRNA of peptidylprolyl isomerase A (cyclophilin A, PPIA), and then normalized the ratio for each gene to its median. For western blots, total islet protein was prepared from freshly isolated or cultured islets after indicated treatments as described in Chen et al. (2009) Genes Dev. 23, 975-985. Equal amounts of protein were resolved on SDS-PAGE and transferred to polyvinylidine fluoride membranes (Amersham Pharmacia) for immunoblotting with specific antibodies, including rabbit polyclonal anti-human Ezh2 (1:1,000, Millipore), rabbit polyclonal anti-phospho-PDGFR-α ([…]) (1:1,000, Santa Cruz Biotechnologies), rabbit monoclonal anti-PDGFR-α (1:1,000, Cell Signaling), mouse monoclonal anti-β-actin (1:4,000, Sigma), rabbit monoclonal anti-Akt (1:1,500, Cell Signaling), rabbit monoclonal anti-phospho-Ark ([…]) (1:1,000, Cell Signaling), rabbit monoclonal anti-p44/42 MAPK (Erk1/2) (1:1,500, Cell Signaling), rabbit monoclonal anti-phospho-p44/42 MAPK (Erk1/2) […]) (1:1,000, Cell Signaling), rabbit monoclonal anti-PLCγ1 (1:1,000, Cell Signaling) and rabbit monoclonal anti-phospho-PLCγ1 ([…]) (1:1,000, Cell Signaling). Signal was visualized using ECL detection (Amersham Pharmacia) on Kodak film after further incubation with HRP-conjugated secondary antibodies. For phospho-PDGFR-α ([…]) and PDGFR-α detection, signal was amplified by incubating the membrane with biotinylated anti-rabbit-IgG (1:2,000), followed with an incubation with HRP-avidin (1:2,000, Vector Laboratories) and then ECL visualization.
# mouse islet β-cells = test: In vitro mouse islet β-cell proliferation (BrdU incorporation); type: cell-based; conditions: juvenile (3 week-old) mouse islets, PDGF-AA 50 ng/ml, 2 days
# Protocol: Mouse pancreatic islets were purified as described in Chen et al. (2009) Genes Dev. 23, 975-985 and used immediately for assays described in the text. To study Ezh2 induction in cultured islets exposed to mitogens, freshly isolated islets from 2-3-week old, and 7-12-month old C57BL/6 mice were recovered and equilibrated overnight at 37° C., 5% CO2 in RPMI-1640 medium supplemented with 0.5% fetal bovine serum (FBS), 0.2% bovine albumin (BSA) and 2% penicillin/streptomycin. Afterwards, islets were distributed into microplates or dishes, and treated with recombinant human PDGF-AA, prolactin or insulin (Sigma), with or without addition of pharmacological inhibitors, including Sunitinib (Selleck), […]0126 (Sigma), LY294002 (Sigma) or U-73122 (Sigma) at the indicated concentrations. Two days later, islets were harvested for RNA or protein extraction for real-time RTPCR or western blot analyses. To detect phosphorylation of Pdgfr-α by western blot, islets were exposed to PDGF-AA (with or without indicated pharmacological inhibitors) for 90 min before islet harvesting and protein extraction. To detect in vitro islet β-cell proliferation stimulated by PDGF-AA, a final concentration of 50 μM BrdU was introduced into each culture dish 24 h before harvest, followed by standard histological processing. Immunostaining of BrdU and insulin was performed on processed islets, and β-cell proliferation rate was determined by quantifying percentage of insulin+ cells with BrdU+. […] For measuring pancreatic β-cell mass or BrdU by morphometry, three to six mice for each group were analysed. At least five sections separated by more than 300 μm (pancreases) or 50 μm (cultured islets) were immunostained and assessed for each sample. Images were analysed with an ImagePro program by observers blinded to genotype, and pancreatic β-cell mass and percentage of BrdU+β-cells were calculated as described in Chen et al. Polycomb protein Ezh2 regulates pancreatic 6-cell Ink4a/Arf expression and regeneration in diabetes mellitus. […]
substance,measurement,setting,value
"PDGF-AA: recombinant human PDGF-AA, a homodimer of PDGF alpha polypeptides",Ezh2 mRNA and protein levels,"Ezh2; 3-week-old (juvenile) mouse islets, 2 days exposure",increased; also recorded: induces
same,Ezh1 expression,"Ezh2; 3-week-old mouse islets, 2 days exposure",but not Ezh1 expression
same,Ezh2 mRNA and protein levels,Ezh2; 7- or 9-month-old adult mouse islets exposed to PDGF-AA,not significantly increased
same,β-cell proliferation assessed by BrdU incorporation,mouse islet β-cells,increased β-cell proliferation in juvenile islets; also recorded: induces
